Data reported in patent US6169091A, “Bicyclic heteroaromatic compounds as protein tyrosine kinase inhibitors” (Glaxo Wellcome Inc., priority 1995, dated 2001).
Structures can show the parent of a compound that is named as a salt.

Key:
[1] = stated without data, in contrast to the compounds of the invention; cited from earlier work
[2] = test system: EGF receptor tyrosine kinase; conditions: Fry et al (Science, 265, 1093 (1994)); cited from earlier work
other tyrosine kinases = conditions: Fry et al (Science, 265, 1093 (1994)); cited from earlier work
c-erbB-2 = molecular target: T1, c-erbB-2 (Homo sapiens, UniProt P04626); experiment: c-erbB-2 substrate phosphorylation assay (33P-labelled γ-phosphate from ATP onto PolyGluAlaTyr); assay type: biochemical; conditions: 1 hour, room temperature, 100 μM ATP, 10 mM MnCl2, pH 7.4, 2% DMSO; recombinant intracellular domain of c-erbB-2
T1 construct: recombinant construct of the intracellular domain of c-erbB-2 that is constitutively active; made in house
T1 sequence (P04626 676-1255 limits assumed): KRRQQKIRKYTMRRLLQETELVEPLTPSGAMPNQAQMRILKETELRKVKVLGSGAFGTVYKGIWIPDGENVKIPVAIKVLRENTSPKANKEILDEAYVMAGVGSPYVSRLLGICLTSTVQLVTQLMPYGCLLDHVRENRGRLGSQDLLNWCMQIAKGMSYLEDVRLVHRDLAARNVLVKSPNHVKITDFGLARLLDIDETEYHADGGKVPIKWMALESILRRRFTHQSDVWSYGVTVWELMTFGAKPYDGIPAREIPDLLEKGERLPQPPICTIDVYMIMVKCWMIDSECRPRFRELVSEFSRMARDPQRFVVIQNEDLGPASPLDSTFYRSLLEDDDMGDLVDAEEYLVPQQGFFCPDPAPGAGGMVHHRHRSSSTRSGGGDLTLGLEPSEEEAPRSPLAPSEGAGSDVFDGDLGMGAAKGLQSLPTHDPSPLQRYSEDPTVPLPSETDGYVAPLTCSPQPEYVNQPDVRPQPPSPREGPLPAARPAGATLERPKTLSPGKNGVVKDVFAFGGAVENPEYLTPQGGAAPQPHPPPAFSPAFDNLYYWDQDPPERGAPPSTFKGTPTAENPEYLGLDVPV
Method: Compounds of the present invention were tested for protein tyrosine kinase inhibitory activity in a substrate phosphorylation assay and a cell proliferation assay. The substrate phosphorylation assay uses a baculovirus expressed, recombinant construct of the intracellular domain of c-erbB-2 that is constitutively active. […] The reaction is stopped by the addition of EDTA (final concentration 0.1M) and the peptide is then precipitated onto ion exchange filter paper and the incorporated radioactivity determined. The results are shown in the first column of Table 1 below as the IC50 values in nM.

HB4a ras cells = experiment: cell proliferation assay, HB4a cells transfected with ras; assay type: cell-based; conditions: Homo sapiens, 96 h, 4 days at 37° C., methylene blue, 0.5% DMSO, control for general toxicity
Method: (§1) Compounds of the present invention were tested for protein tyrosine kinase inhibitory activity in a substrate phosphorylation assay and a cell proliferation assay. The cell proliferation assay uses an immortalised human breast epithelial cell line (HB4a) which has been transformed by over-expression of c-erbB-2. Growth of these cells in low serum is dependent upon the c-erbB-2 tyrosine kinase activity. The specificity of the effect of the test compounds on tyrosine kinase dependent growth over general toxicity is assessed by comparison to an HB4a cell line which has been transfected with ras. Cells are plated at 3000/well in 96-well plates in 0.1 ml medium and allowed to attach overnight. test compound is added in 0.1 ml medium, with a final concentration of 0.5% DMSO, and the plates incubated for 4 days at 37° C. The cells are then examined microscopically for evidence of morphological detransformation and cell mass is estimated by staining with methylene blue and measuring the absorbance at 620 nm. The results are shown in the second and third columns of Table 1 below as the IC50 values in nM.

HB4a erbB-2 cells = experiment: cell proliferation assay, HB4a cells transformed by over-expression of c-erbB-2; assay type: cell-based; conditions: Homo sapiens, 96 h, low serum, 4 days at 37° C., methylene blue, 0.5% DMSO
Method: as §1

| Structure (SMILES) | IC50 (c-erbB-2) [nM] | in vivo activity [1] | inhibition of the EGF receptor tyrosine kinase [2] | inhibition of other tyrosine kinases (other tyrosine kinases) | IC50 (HB4a ras cells) [nM] | IC50 (HB4a erbB-2 cells) [nM] |
| --- | --- | --- | --- | --- | --- | --- |
| COc1cc2ncnc(Nc3cccc(Br)c3)c2cc1OC |  | does not however exhibit good in vivo activity | picomolar concentrations | micromolar or higher concentrations |  |  |
| Clc1cc2c(Nc3ccc(OCc4ccccc4)cc3)ncnc2cn1 [Example 1, 4-(4-Benzyloxyanilino)-6-chloropyrido[3,4-]pyrimidine hydrochloride] | 58 |  |  |  | 17000 | 2700 |
| Cn1cncc1-c1cc2c(Nc3ccc(OCc4ccccc4)cc3)ncnc2cn1 [Example 2, 4-(4-Benzyloxyanilino)-6-(N-methylimidazol-5-yl)pyrido[3,4-d]pyrimidine] | 26 |  |  |  | 3700 | 690 |
| Cn1nccc1-c1cc2c(Nc3ccc(OCc4ccccc4)cc3)ncnc2cn1 [Example 4, 4-(4-Benzyloxyanilino)-6-(N-methylpyrazol-2-yl)pyrido[3,4-d]pyrimidine] | 124 |  |  |  | 11000 | 2500 |
| c1ccc(COc2ccc(Nc3ncnc4cnc(-c5ccco5)cc34)cc2)cc1 [Example 5, 4-(4-Benzyloxyanilino)-6-(furan-2-yl)pyrido[3,4-d]pyrimidine] | 14 |  |  |  | 11000 | 500 |
| CN1CCN(c2cc3c(Nc4ccc(OCc5ccccc5)cc4)ncnc3cn2)CC1 [Example 8, 4-(4-Benzyloxyanilino)-6-(1-methylpiperazin-4-yl)-pyrido[3,4-d]pyrimidine] | 20 |  |  |  | 7500 | 590 |
| O=S1(=O)CCN(c2cc3c(Nc4ccc(OCc5ccccc5)cc4)ncnc3cn2)CC1 [Example 11, 4-(4-Benzyloxyanilino)-6-(thiomorpholine-1,1-dioxide-4-yl)-pyrido[3,4-d]pyrimidine] | 920 |  |  |  | 37000 | 10000 |
| CN1CCN(c2cc3c(Nc4ccc(S(=O)(=O)c5ccccc5)cc4)ncnc3cn2)CC1 [Example 16, 6-(1-Methylpiperazin-4-yl)-4-(4-phenylsulphonylanilino)-pyrido[3,4-d]pyrimidine] | 50 |  |  |  | 6600 | 2400 |
| CN(C)CCN(C)c1cc2c(Nc3ccc(S(=O)(=O)c4ccccc4)cc3)ncnc2cn1 [Example 17, 6-[N-Methyl-N-(2-dimethylaminoethyl)amino]-4-(4-phenylsulphonylanilino)-pyrido[3,4-d]pyrimidine] | 200 |  |  |  | 10000 | 4400 |
| CN(C)c1cc2c(Nc3ccc(OCC4OCCO4)cc3)ncnc2cn1 [Example 20, 6-(N,N-Dimethylamino)-4-[4-(1,3-dioxolan-2-yl)methoxyanilino]pyrido[3,4-d]pyrimidine] | 10 |  |  |  | 46000 | 2400 |
| COc1ccccc1COc1ccc(Nc2ncnc3ccsc23)cc1Cl [Example 24, 4-[3-Chloro-4-(2-methoxybenzyloxy)anilino]thieno[3,2-d]pyrimidine hydrochloride] | 50 |  |  |  | 18000 | 10000 |
| Clc1cc(Nc2ncnc3ccsc23)ccc1OCc1ccccc1Br [Example 26, 4-[4-(2-Bromobenzyloxy)-3-chloroanilino]thieno[3,2-d]pyrimidine hydrochloride] | 230 |  |  |  | 30000 | 2500 |
| c1ccc(Oc2ccc(Nc3ncnc4ccsc34)cc2)cc1 [Example 29, 4-(4-Phenoxyanilino)thieno[3,2-d]pyrimidine hydrochloride] | 110 |  |  |  | 20000 | 5000 |
| Cc1csc2ncnc(Nc3ccc(Oc4ccccc4)cc3)c12 [Example 37, 5-Methyl4-(4-phenoxyanilino)thieno[2,3-d]pyrimidine hydrochloride] | 650 |  |  |  | 25000 | 17000 |

The next lines start with results.

| IC50 (c-erbB-2) [nM] | Structure (SMILES) | in vivo activity [1] | inhibition of the EGF receptor tyrosine kinase [2] | inhibition of other tyrosine kinases (other tyrosine kinases) | IC50 (HB4a ras cells) [nM] | IC50 (HB4a erbB-2 cells) [nM] |
| --- | --- | --- | --- | --- | --- | --- |
| 115 | Cn1ccnc1-c1cc2c(Nc3ccc(OCc4ccccc4)cc3)ncnc2cn1 [Example 3, 4-(4-Benzyloxyanilino)-6-(N-methylimidazol-2-yl)pyrido[3,4-d]pyrimidine] |  |  |  | 44000 | 11000 |
| 1.3 | CN(C)c1cc2c(Nc3ccc(OCc4ccccc4)cc3)ncnc2cn1 [Example 7, 4-(4-Benzyloxyanilino)-6-(N,N-dimethylamino)pyrido[3,4-d]pyrimidine] |  |  |  | > 50000 | 300 |
| 24 | CN(C)c1cc2c(Nc3ccc(Oc4ccccc4)cc3)ncnc2cn1 [Example 12, 6-N,N-Dimethylamino-4-(4-phenoxyanilino)pyrido[3,4-d]pyrimidine] |  |  |  | 31000 | 1600 |
| 900 | O=S(=O)(c1ccccc1)c1ccc(Nc2ncnc3cnc(Cl)cc23)cc1 [Example 14, 6-Chloro-4-(4-phenylsulphonylanilino)pyrido[3,4-d]pyrimidine hydochloride] |  |  |  | 50000 | 15000 |
| 30 | CN(C)c1cc2c(Nc3ccc(S(=O)(=O)c4ccccc4)cc3)ncnc2cn1 [Example 15, 6-(N,N-Dimethylamino)-4-(4-phenylsulphonylanilino)pyrido[3,4-d]pyrimidine] |  |  |  | 32000 | 570 |
| 5 | CN(CCO)c1cc2c(Nc3ccc(S(=O)(=O)c4ccccc4)cc3)ncnc2cn1 [Example 18, 6-[N-Methyl-N-(2-hydroxyethyl)amino]-4-(4-phenylsulphonylanilino)pyrido[3,4-d]pyrimidine] |  |  |  | 28000 | 150 |
| 300 | c1ccc(COc2ccc(Nc3ncnc4ccsc34)cc2)cc1 [Example 23, 4-(4-Benzyloxyanilino)thieno[3,2-d]pyrimidine hydrochloride] |  |  |  | 5000 | 2000 |
| 150 | Fc1ccccc1COc1ccc(Nc2ncnc3ccsc23)cc1Cl [Example 25, 4-[3-Chloro-4-(2-fluorobenzyloxy)anilino]thieno[3,2-d]pyrimidine hydrochloride] |  |  |  | 3000 | 500 |
| 200 | c1ccc(Cc2ccc(Nc3ncnc4ccsc34)cc2)cc1 [Example 28, 4-(4-Benzylanilino)thieno[3,2-d]pyrimidine hydrochloride] |  |  |  | 13000 | 3000 |
| 860 | FC(F)(Oc1ccc(Nc2ncnc3ccsc23)cc1)c1ccccc1 [Example 30, 4-(4-(a,a-Difluorobenzyloxy)anilino)thieno[3,2-d]pyrimidine hydrochloride] |  |  |  | 15000 | 6000 |
| 99 | Cc1csc2ncnc(Nc3ccc(OCc4ccccc4F)c(Cl)c3)c12 [Example 35, 4-[3-Chloro-4-(2-fluorobenzyloxy)anilino]-5-methylthieno[2,3-d]pyrimidine hydrochloride] |  |  |  | 25000 | 8000 |
| 500 | Cc1csc2ncnc(Nc3ccc(OCC4CCCCC4)cc3)c12 [Example 36, 4-(4-Cyclohexylmethoxyanilino)-5-methylthieno[2,3-d]pyrimidine hydrochloride] |  |  |  | 10000 | 10000 |
| 490 | c1ccc(Oc2ccc(Nc3ncnc4scc(-c5cccs5)c34)cc2)cc1 [Example 38, 4-(4-Phenoxyanilino)-5-(2-thienyl)thieno[2,3-d]pyrimidine hydrochloride] |  |  |  | 20000 | 20000 |
